Reference: publication PMC6816037 (Computational and Structural Biotechnology Journal, 2019)

Target: XIAP-BIR3 (Homo sapiens, UniProt P98170)
Assay: surface plasmon resonance
Assay type: binding

XIAP-BIR3, sequence (P98170 241-356 limits assumed): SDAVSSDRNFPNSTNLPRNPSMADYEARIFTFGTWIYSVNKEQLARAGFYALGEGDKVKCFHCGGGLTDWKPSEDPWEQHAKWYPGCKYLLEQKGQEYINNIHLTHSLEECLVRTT

- Kd: 13.3 µM
Structure (SMILES): C[C@@H]1O[C@@H](O[C@H]2[C@H](Oc3cc(O)c4c(c3)O[C@H](c3ccc(O)c(O)c3)CC4=O)O[C@H](CO)[C@@H](O)[C@@H]2O)[C@H](O)[C@H](O)[C@H]1O [compound 10, neoeriocitrin]
